Assay results published in patent US20100137346A1, “DESFE[…] ACTINIDE DEC[…]” (priority 2006, published 2010).
Where two headings read alike, the source gives them in different places.

Assay: Chelator-induced uranium excretion (urine + bile, 24 h) in bile duct-cannulated rat model
Format: in vivo
Method: Desferrithiocin Analogue Induced Excretion of Uranium. In order to compare results with previous chelator-induced iron excretion data, the uranium clearance studies were carried out in a bile duct-cannulated rat model. The animals were given uranyl acetate dihydrate SC at a dose of 5 mg/kg (the actual dose of uranium is 2.8 mg/kg). Bile and urine samples were collected for 24 hours after dosing. Kidneys were removed from selected animals and tissue uranium concentration measured. At least three animals were utilized in each experimental group. Data from two separate control studies (uranyl acetate/ no chelator) have now been combined for a total of 14 control animals. All uranium concentrations were measured using ICPMS. The data are reported as the total quantity of uranium excreted [urine +bile]; the mode of excretion [urine/bile] is also given. In addition the percentage of the administered dose of uranium cleared and chelator-induced uranium excretion vs the controls is also given. Four positive controls were evaluated: DTPA (13, Table 1) given as its trisodium calcium salt, DFO (14), N,N′-bis(2hydroxybenzyl)ethylenediamine-N,N′-diacetic acid, monosodium salt (NaHBED, 15) and the hydroxypyridone CP94 (16) shown to bind uranium [Pashalidis, et al., Effective complex formation in the interaction of 1,2-dimethyl-3-hydroxypyrid-4-one (Deferiprone or L1) with uranium(VI), Journal of Radioanalytical and Nuclear Chemistry 1999; 242:181-184.] The total metal cleared after 24 h in control rats was 10% of the administered dose. When DTPA, 13, was given IP or PO at 300 μmol/kg immediately after uranium, the excretion was 17% and 8% of the administered dose respectively (p>0.05). However, when the drug was given IP at a dose of 600 μmol/kg immediately post-metal, the uranium excretion was significant, 20% (p<0.005). This is consistent with previously published data using a similar animal model.[Domingo, et al., Comparative effects of the chelators sodium 4,5-dihydroxybenzene-1,3-disulfonate (Tiron) and diethylenetriaminepentaacetic acid (DTPA) on acute uranium nephrotoxicity in rats, Toxicology 1997; 118:49-59] DFO (14) and CP94 (16) given IP immediately post uranyl acetate were ineffective.
Desferrithiocin Analogue-Induced Excretion of Uranium. In order to compare results with previous chelator-induced iron excretion data, the uranium clearance studies were carried out in a bile duct-cannulated rat model. The animals were given uranyl acetate dihydrate SC at a dose of 5 mg/kg (the actual dose of uranium is 2.8 mg/kg). Bile and urine samples were collected for 24 hours after dosing. Kidneys were removed from selected animals and tissue uranium concentration measured. At least three animals were utilized in each experimental group. Data from two separate control studies (uranyl acetate/ no chelator) are combined for a total of 14 control animals. All uranium concentrations were measured using ICPMS. The data are reported as the total quantity of uranium excreted [urine +bile]; the mode of excretion [urine/bile] is also given. In addition the percentage of the administered dose of uranium cleared and chelator-induced uranium excretion vs the controls is also given. Four positive controls were evaluated: DTPA (1, Table 1) given as its trisodium calcium salt, DFO (2), N,N -bis(2-hydroxybenzyl)ethylenediamine-N,N-diacetic acid, monosodium salt (NaHBED, 3) and the hydroxypyridone CP94 (4) shown to bind uranium. The total metal cleared after 24 h in control rats was 10% of the administered dose. When DTPA, 1, was given IP or PO at 300 μmol/kg immediately after uranium, the excretion was 17% and 8% of the administered dose respectively (p>0.05). However, when the drug was given IP at a dose of 600 μmol/kg immediately post metal, the uranium excretion was significant, 20% (p<0.005). This is consistent with previously published data using a similar animal model.^2 DFO (2) and CP94 (4) given IP immediately post uranyl acetate were ineffective.

[1] = Rattus norvegicus, ip, 24 h, 300 μmol/kg IP 0.5 h Post, read-out: Chelator-Induced U Excretion/Control
[2] = Rattus norvegicus, ip, 24 h, 300 μmol/kg IP Immediate, read-out: Chelator-Induced U Excretion/Control

COc1ccc(C2=N[C@H](C(=O)O)CS2)c(O)c1
% of Administered Dose Cleared (300 μmol/kg IP 0.5 h Post): 33%
Uranium Excretion (300 μmol/kg IP 0.5 h Post): 917 ± 177 µg/kg
Uranium Excretion [urine/bite] (300 μmol/kg IP 0.5 h Post): 16/84
% of Administered Dose Cleared (300 μmol/kg IP 0.5 h Pre): 29%
Uranium Excretion (300 μmol/kg IP 0.5 h Pre): 815 ± 211 µg/kg
Uranium Excretion [urine/bite] (300 μmol/kg IP 0.5 h Pre): 48/52
% of Administered Dose Cleared (300 μmol/kg IP 2 h Post): 30%
Uranium Excretion (300 μmol/kg IP 2 h Post): 847 ± 335 µg/kg
Uranium Excretion [urine/bite] (300 μmol/kg IP 2 h Post): 46/54
% of Administered Dose Cleared (300 μmol/kg IP 4 h Post): 16%
Uranium Excretion (300 μmol/kg IP 4 h Post): 444 ± 119 µg/kg
Uranium Excretion [urine/bite] (300 μmol/kg IP 4 h Post): 66/34
% of Administered Dose Cleared (300 μmol/kg IP Immediate): 30%
Uranium Excretion (300 μmol/kg IP Immediate): 838 ± 166 µg/kg
Uranium Excretion [urine/bite] (300 μmol/kg IP Immediate): 64/36
% of Administered Dose Cleared (300 μmol/kg PO 2 h Post): 18%
Uranium Excretion (300 μmol/kg PO 2 h Post): 507 ± 182 µg/kg
Uranium Excretion [urine/bite] (300 μmol/kg PO 2 h Post): 53/47
% of Administered Dose Cleared (300 μmol/kg PO Immediate): 23%
Uranium Excretion (300 μmol/kg PO Immediate): 642 ± 101 µg/kg
Uranium Excretion [urine/bite] (300 μmol/kg PO Immediate): 43/57
% of Administered Dose Cleared (300 μmol/kg SC Immediate): 40%
Uranium Excretion (300 μmol/kg SC Immediate): 1130 ± 246 µg/kg
Uranium Excretion [urine/bite] (300 μmol/kg SC Immediate): 13/87
% of Administered Dose Cleared (600 μmol/kg PO 0.5 h Post): 25%
Uranium Excretion (600 μmol/kg PO 0.5 h Post): 698 ± 166 µg/kg
Uranium Excretion [urine/bite] (600 μmol/kg PO 0.5 h Post): 24/76
% of Administered Dose Cleared (600 μmol/kg PO 1 h Post): 26%
Uranium Excretion (600 μmol/kg PO 1 h Post): 723 ± 126 µg/kg
Uranium Excretion [urine/bite] (600 μmol/kg PO 1 h Post): 28/72
response vs control in vivo at 300 µmol/kg [1]: 330%
response vs control in vivo at 300 µmol/kg (Rattus norvegicus, ip, 24 h, 300 μmol/kg IP 0.5 h Pre, read-out: Chelator-Induced U Excretion/Control): 290%
response vs control in vivo at 300 µmol/kg (Rattus norvegicus, ip, 24 h, 300 μmol/kg IP 2 h Post, read-out: Chelator-Induced U Excretion/Control): 300%
response vs control in vivo at 300 µmol/kg (Rattus norvegicus, ip, 24 h, 300 μmol/kg IP 4 h Post, read-out: Chelator-Induced U Excretion/Control): 160%
response vs control in vivo at 300 µmol/kg [2]: 300%
response vs control in vivo at 300 µmol/kg (Rattus norvegicus, po, 24 h, 300 μmol/kg PO 2 h Post, read-out: Chelator-Induced U Excretion/Control): 180%
response vs control in vivo at 300 µmol/kg (Rattus norvegicus, po, 24 h, 300 μmol/kg PO Immediate, read-out: Chelator-Induced U Excretion/Control): 230%
response vs control in vivo at 600 µmol/kg (Rattus norvegicus, po, 24 h, 600 μmol/kg PO 0.5 h Post, read-out: Chelator-Induced U Excretion/Control): 250%
response vs control in vivo at 600 µmol/kg (Rattus norvegicus, po, 24 h, 600 μmol/kg PO 1 h Post, read-out: Chelator-Induced U Excretion/Control): 260%
response vs control in vivo at 300 µmol/kg (Rattus norvegicus, sc, 24 h, 300 μmol/kg SC Immediate, read-out: Chelator-Induced U Excretion/Control): 400%

CCC1=C(O)C(=O)CCN1CC [drawing 7]
% of Administered Dose Cleared (450 μmol/kg IP Immediate): 11%
Uranium Excretion (450 μmol/kg IP Immediate): 302 ± 171 µg/kg
Uranium Excretion [urine/bite] (450 μmol/kg IP Immediate): 100/0
response vs control in vivo at 450 µmol/kg (Rattus norvegicus, ip, 24 h, 450 μmol/kg IP Immediate, read-out: Chelator-Induced U Excretion/Control): 110%

CC1(C)SC(c2ccccc2O)=N[C@@H]1C(=O)O [drawing 9]
% of Administered Dose Cleared (300 μmol/kg IP 0.5 h Post): 7%
Uranium Excretion (300 μmol/kg IP 0.5 h Post): 200 ± 47 µg/kg
Uranium Excretion [urine/bite] (300 μmol/kg IP 0.5 h Post): [37/63]
% of Administered Dose Cleared (300 μmol/kg IP Immediate): 26%
Uranium Excretion (300 μmol/kg IP Immediate): 743 ± 189 µg/kg
Uranium Excretion [urine/bite] (300 μmol/kg IP Immediate): 8/92
response vs control in vivo at 300 µmol/kg [1]: 70%
response vs control in vivo at 300 µmol/kg [2]: 260%

O=C([O-])CN(CCN(CC(=O)O)Cc1ccccc1O)Cc1ccccc1O.[Na+] [drawing 6]
% of Administered Dose Cleared (150 μmol/kg IP Immediate): 17%
Uranium Excretion (150 μmol/kg IP Immediate): 483 ± 119 µg/kg
Uranium Excretion [urine/bite] (150 μmol/kg IP Immediate): 97/3
response vs control in vivo at 150 µmol/kg (Rattus norvegicus, ip, 24 h, 150 μmol/kg IP Immediate, read-out: Chelator-Induced U Excretion/Control): 170%

COc1ccc(C2=N[C@@H](C(=O)O)CS2)c(O)c1 [drawing 12]
% of Administered Dose Cleared (300 μmol/kg IP 0.5 h Post): 33%
Chelator-Induced U Excretion/Control (300 μmol/kg IP 0.5 h Post): 3.3
Uranium Excretion (300 μmol/kg IP 0.5 h Post): 917 ± 177 µg/kg
Uranium Excretion [urine/bite] (300 μmol/kg IP 0.5 h Post): [16/84]
% of Administered Dose Cleared (300 μmol/kg IP 0.5 h Pre): 29%
Chelator-Induced U Excretion/Control (300 μmol/kg IP 0.5 h Pre): 2.9
Uranium Excretion (300 μmol/kg IP 0.5 h Pre): 815 ± 211 µg/kg
Uranium Excretion [urine/bite] (300 μmol/kg IP 0.5 h Pre): 48/52
% of Administered Dose Cleared (300 μmol/kg IP 2 h Post): 30%
Chelator-Induced U Excretion/Control (300 μmol/kg IP 2 h Post): 3.0
Uranium Excretion (300 μmol/kg IP 2 h Post): 847 ± 335 µg/kg
Uranium Excretion [urine/bite] (300 μmol/kg IP 2 h Post): [46/54]
% of Administered Dose Cleared (300 μmol/kg IP 4 h Post): 16%
Chelator-Induced U Excretion/Control (300 μmol/kg IP 4 h Post): 1.6
Uranium Excretion (300 μmol/kg IP 4 h Post): 444 ± 119 µg/kg
Uranium Excretion [urine/bite] (300 μmol/kg IP 4 h Post): [66/34]
% of Administered Dose Cleared (300 μmol/kg IP Immediate): 30%
Chelator-Induced U Excretion/Control (300 μmol/kg IP Immediate): 3.0
Uranium Excretion (300 μmol/kg IP Immediate): 838 ± 166 µg/kg
Uranium Excretion [urine/bite] (300 μmol/kg IP Immediate): [64/36]
% of Administered Dose Cleared (300 μmol/kg PO 2 h Post): 18%
Chelator-Induced U Excretion/Control (300 μmol/kg PO 2 h Post): 1.8
Uranium Excretion (300 μmol/kg PO 2 h Post): 507 ± 182 µg/kg
Uranium Excretion [urine/bite] (300 μmol/kg PO 2 h Post): [53/47]
% of Administered Dose Cleared (300 μmol/kg PO Immediate): 23%
Chelator-Induced U Excretion/Control (300 μmol/kg PO Immediate): 2.3
Uranium Excretion (300 μmol/kg PO Immediate): 642 ± 101 µg/kg
Uranium Excretion [urine/bite] (300 μmol/kg PO Immediate): [43/57]
% of Administered Dose Cleared (300 μmol/kg SC Immediate): 40%
Chelator-Induced U Excretion/Control (300 μmol/kg SC Immediate): 4.0
Uranium Excretion (300 μmol/kg SC Immediate): 1130 ± 245 µg/kg
Uranium Excretion [urine/bite] (300 μmol/kg SC Immediate): [13/87]
% of Administered Dose Cleared (600 μmol/kg PO 0.5 h Post): 25%
Chelator-Induced U Excretion/Control (600 μmol/kg PO 0.5 h Post): 2.5
Uranium Excretion (600 μmol/kg PO 0.5 h Post): 698 ± 166 µg/kg
Uranium Excretion [urine/bite] (600 μmol/kg PO 0.5 h Post): [24/76]
% of Administered Dose Cleared (600 μmol/kg PO 1 h Post): 26%
Chelator-Induced U Excretion/Control (600 μmol/kg PO 1 h Post): 2.6
Uranium Excretion (600 μmol/kg PO 1 h Post): 723 ± 128 µg/kg
Uranium Excretion [urine/bite] (600 μmol/kg PO 1 h Post): [28/72]

CC1(C)SC(c2ccccc2O)=NC1C(=O)O (stereo in doubt) [Compound 17, (S)-4,5-dihydro-5,5-dimethyl-2-(2-hydroxyphenyl)-4-thiazolecarboxylic acid]
% of Administered Dose Cleared (300 μmol/kg IP Immediate): 26%
uranium excretion, in words (IP 300 μmol/kg, given 0.5 h post metal): insignificant
